The structures appear in SMILES notation.

Here are results for one molecule from publication PMC8645336, “Benchmarking a highly selective USP30 inhibitor for enhancement of mitophagy and pexophagy” (Life Science Alliance, 2021).

Experiment in all cases: biochemical
Common to all, as to set-up: Ubiquigent DUB profiler selectivity panel, remaining enzyme activity as % of control
Common to all, as to conditions: read-out: % of control remaining

The target of test [1] is T1, Ataxin3 (Homo sapiens, UniProt P54252).
T1 construct: gene ATXN3
T1 sequence (P54252 whole entry): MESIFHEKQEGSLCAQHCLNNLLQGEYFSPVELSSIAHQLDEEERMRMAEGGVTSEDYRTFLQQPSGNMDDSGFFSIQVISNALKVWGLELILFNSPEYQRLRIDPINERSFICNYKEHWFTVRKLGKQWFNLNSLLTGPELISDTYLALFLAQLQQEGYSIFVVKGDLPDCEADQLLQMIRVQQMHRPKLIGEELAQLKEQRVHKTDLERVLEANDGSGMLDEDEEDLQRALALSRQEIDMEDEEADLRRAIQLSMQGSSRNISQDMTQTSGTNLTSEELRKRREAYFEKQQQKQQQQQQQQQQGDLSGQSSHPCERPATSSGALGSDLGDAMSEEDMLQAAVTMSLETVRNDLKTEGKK
Summed up: (§1)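 CMPD-39 selectivity was profiled at 1-100 μM across >40 DUBs. Cellular engagement used 2 h CMPD-39 pretreatment, then HA-Ub-PA probe for 10 min at 37°C, with USP30 band shift on immunoblot. TOMM20 ubiquitylation was blotted in YFP-PRKN hTERT-RPE1 cells after 1 h antimycin A/oligomycin A (1 μM each).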

The target in test [2] is T2, USP15 (Homo sapiens, UniProt Q9Y4E8).
T2 sequence (Q9Y4E8 1-981): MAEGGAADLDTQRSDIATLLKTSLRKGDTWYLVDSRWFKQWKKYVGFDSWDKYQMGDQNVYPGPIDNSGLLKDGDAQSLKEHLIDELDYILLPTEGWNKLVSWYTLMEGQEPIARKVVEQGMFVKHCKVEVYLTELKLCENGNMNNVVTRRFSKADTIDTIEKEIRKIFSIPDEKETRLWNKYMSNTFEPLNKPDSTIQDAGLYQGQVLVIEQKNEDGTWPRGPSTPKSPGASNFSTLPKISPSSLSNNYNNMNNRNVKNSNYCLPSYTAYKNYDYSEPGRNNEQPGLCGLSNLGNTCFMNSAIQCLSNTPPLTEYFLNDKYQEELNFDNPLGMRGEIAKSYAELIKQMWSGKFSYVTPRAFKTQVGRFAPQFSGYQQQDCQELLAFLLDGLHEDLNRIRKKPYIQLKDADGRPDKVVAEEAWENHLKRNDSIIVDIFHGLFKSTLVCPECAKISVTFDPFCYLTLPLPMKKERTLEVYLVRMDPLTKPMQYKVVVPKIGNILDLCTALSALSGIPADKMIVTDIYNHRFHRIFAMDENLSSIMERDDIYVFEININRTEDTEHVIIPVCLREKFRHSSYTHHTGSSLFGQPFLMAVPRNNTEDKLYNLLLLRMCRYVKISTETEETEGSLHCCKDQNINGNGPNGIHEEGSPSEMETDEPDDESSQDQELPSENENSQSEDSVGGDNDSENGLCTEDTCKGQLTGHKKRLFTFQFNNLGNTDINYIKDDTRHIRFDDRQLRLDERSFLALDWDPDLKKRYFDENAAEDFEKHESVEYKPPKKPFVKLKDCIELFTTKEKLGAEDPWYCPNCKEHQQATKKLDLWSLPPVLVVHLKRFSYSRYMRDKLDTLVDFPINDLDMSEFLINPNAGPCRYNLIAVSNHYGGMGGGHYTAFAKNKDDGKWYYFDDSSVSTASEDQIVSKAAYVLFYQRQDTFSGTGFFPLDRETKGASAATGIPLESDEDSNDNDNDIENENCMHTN
Summed up: as §1

The target of test [3] is T3, UCHL1 (Homo sapiens, UniProt P09936).
T3 sequence (P09936 1-223): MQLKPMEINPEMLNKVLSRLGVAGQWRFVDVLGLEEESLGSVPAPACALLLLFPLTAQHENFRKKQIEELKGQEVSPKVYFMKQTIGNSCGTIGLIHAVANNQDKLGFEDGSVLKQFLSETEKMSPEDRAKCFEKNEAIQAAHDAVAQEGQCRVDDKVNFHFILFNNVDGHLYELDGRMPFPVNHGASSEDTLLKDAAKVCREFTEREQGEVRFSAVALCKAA
Summed up:
as §1

The target of test [4] is T4, USP17 (Homo sapiens, UniProt Q6R6M4).
T4 construct: gene USP17L2
T4 sequence (Q6R6M4 1-530): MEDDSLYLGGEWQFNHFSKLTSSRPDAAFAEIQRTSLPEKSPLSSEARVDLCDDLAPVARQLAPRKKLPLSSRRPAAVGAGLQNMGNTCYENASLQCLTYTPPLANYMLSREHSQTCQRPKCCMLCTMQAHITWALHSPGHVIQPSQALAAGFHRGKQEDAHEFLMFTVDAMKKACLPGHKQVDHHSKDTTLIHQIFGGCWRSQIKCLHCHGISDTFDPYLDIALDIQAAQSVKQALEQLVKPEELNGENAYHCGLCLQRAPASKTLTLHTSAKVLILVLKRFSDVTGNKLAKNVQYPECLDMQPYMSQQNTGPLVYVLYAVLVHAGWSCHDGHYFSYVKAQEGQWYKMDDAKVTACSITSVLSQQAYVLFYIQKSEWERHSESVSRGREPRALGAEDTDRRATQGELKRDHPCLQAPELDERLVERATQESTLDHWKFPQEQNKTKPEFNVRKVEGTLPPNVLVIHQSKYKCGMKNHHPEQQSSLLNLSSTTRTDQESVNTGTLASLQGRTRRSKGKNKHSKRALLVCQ
The essentials:
as §1

Regarding `CC(C)(C)NS(=O)(=O)c1ccc(NC(=O)[C@H](Cc2ccccc2)NC(=O)c2ccc(F)cc2)cc1` [compound 39, CMPD-39], the remaining activity at 1 µM in test [1] came out at 102%; in test [2], 103%; in test [3], 103%; in test [4] it was 110%. Also, the remaining activity at 10 µM in test [1] was determined as 102%; in test [2] it was 101%; in test [3], 98.5%; in test [4] it was 119%. Also, the remaining activity at 100 µM in test [1] was found to be 101%; in test [2], 98.1%; in test [3] it was 96.3%; in test [4], 102%.
